# Results published in patent publication US20040137454A1, “Assay for drug-induced recoding” (priority 2004, published 2004).
# Experiments:
# [1] = tested on: antizyme 1 polyamine-regulated frameshifting sequence; experiment: Dual luciferase reporter assay of antizyme 1 +1 frameshifting (p2Lucaz1) in transfected cells; assay type: cell-based, human; conditions: for Maximal frameshifting stimulation: HEK293, standard growth conditions without DFMO, 0.01-0.1 mM spermine, 0.1-2 mM spermidine, 0.5-2 mM putrescine; for Fold increase of antizyme 1 frameshifting upon polyamine addition to DFMO pre-treated cells: HEK293 pre-treated with DFMO, 0.1 mM spermine, 2 mM spermidine, 2 mM putrescine; for Effect on amount of frameshifting, p2Lucaz1: cultured mammalian cells, controls 2.5 mM DFMO
# Description: Referring now to FIG. 2, the construction of illustrative embodiments of the dual reporter assay constructs is depicted. These illustrative embodiments use the renilla and firefly luciferases as first and second reporters, respectively. […] Pat. […] The shift site (TCCT), corresponding to UCCU in the corresponding mRNA, is present at nucleotides 55-58 of each of these sequences. […] Zero frame (“0 frame”) controls for each construct were identical except that the first T of the stop codon following the shift site was deleted. It will be appreciated that the DNA constructs disclosed herein are merely examples of dual reporter constructs comprising two reporter-encoding DNA segments separated by a cloning site containing a polyamine-regulated frameshifting sequence, and that all such constructs are included within the scope of the present invention. Cultured mammalian cells are transfected with the dual construct according to method well known in the art. Parallel cell lines are transfected with the +1 reading frame and 0 reading frame construct according to methods well known in the art. The cells are then incubated under varying conditions to test the effect of such conditions on the polyamine regulation. Cells are then lysed and the luciferase activity measured by light emission after injection of luminescence substrate, as is well known in the art. […] This provides a quantitative assay for measuring the polyamine-induced recoding. […] Similarly, mouse germ line (GC-2) cells were obtained from the American Tissue Type culture Collection (Manassas, Va.). […] All cells were incubated at 37° C. in an atmosphere of 5% CO2 All media and antibiotics were obtained from Invitrogen Life Technologies (Carlsbad, Calif.), and all sera were obtained from HyClone Inc. (Logan Utah). The cells were transfected with the dual luciferase constructs p2Lucaz1 and p2Lucaz2 using LIPOFECTIN reagent (Invitrogen Life Technologies). LIPOFECTIN reagent is a 1:1 (w/w) liposome formulation of the cationic lipid […],-trimethylammonium chloride (DOTMA), and dioleoyl phosphotidylethanolamine (DOPE) in membrane filtered water. Cells (0.3×10^5) were plated in 48-well, treated tissue culture plates and grown for 48 hours as described above. DFMO (2.5 mM) was added to half the plates of each cell line to inhibit polyamine synthesis. […] Cells were lysed using passive lysis buffer and luciferase activity was determined using the Dual Luciferase reporter assay (Promega, Madison, Wis.) as described in Grentzmann, supra. For all reactions, light emission was measure between 2 and 12 seconds after 100 μl of luminescence substrate was injected.
# endogenous antizyme = experiment: Endogenous antizyme levels measured as ODC-inhibitory activity in HEK293 cell extracts; assay type: cell-based, human; conditions: HEK293 cells, 24 hours; for Antizyme: 1 mM aminoguanidine
# Protocol: The endogenous antizyme levels were also measured for comparison. HEK293 cells were plated in 10 cm dishes with 10 ml of the growth media as described above at a concentration of 3×10^5 cells/ml and incubated for 24 hours. The medium was replaced with fresh medium supplemented with 1 mM aminoguanidine and various concentrations of either putrescine, spermidine, or spermine. The dishes were incubated further for 24 hours, placed on ice, washed with phosphate buffered saline twice, drained completely, and cells were disrupted by 3 freeze/thaw cycles. Then 0.5 ml of cell extract buffer (25 mM Tris-HCl, pH 7.2, 1 mM dithiothreitol, 1 mM EDTA, and 0.01% Tween 80) was added, and the cell suspension was centrifuged at 15,000 rpm for 30 minutes at 4° C. Antizyme activities were measured as ODC-inhibitory activities that could be reversed by excess antizyme inhibitor. Cell extracts (40 μl) were mixed with 2.0 units of mouse kidney ODC in duplicate. To one set, 0.1 μg of GST-antizyme inhibitor protein was added. ODC activity of each mixture was assayed by measuring the release of ^14CO2 from L-[1-^14C] ornithine (as described in I. P. Ivanov et al., Discovery of a Spermatogenesis Stage-specific Ornithine Decarboxylase Antizyme: Antizyme 3, 97 Proc. Nat'l Acad. Sci. USA 97, 4808-4813 (2000); I. P. Ivanov et al., Conservation of Polyamine Regulation by Translational Frameshifting from Yeast to Mammals, 19 EMBO J. 1907-1917 (2000); S. Matsufuji et al., Reading Two Bases Twice: Mammalian Antizyme Frameshifting in Yeast, 15 EMBO J. 1360-1370 (19%)), and expressed as specific activities. Protein concentrations of the extracts were determined with the BCA protein assay kit (Pierce) using bovine serum albumin as a standard. One unit of ODC and antizyme was defined as the activity releasing […] CO2 per hour and the activity inhibiting 1 unit of ODC, respectively.
# [2] = tested on: antizyme 2 polyamine-regulated frameshifting sequence; experiment: Dual luciferase reporter assay of antizyme 2 +1 frameshifting (p2Lucaz2) in transfected cells; assay type: cell-based, human; conditions: for Effect on amount of frameshifting, p2Lucaz2: cultured mammalian cells, controls 2.5 mM DFMO
# Description: Referring now to FIG. 2, the construction of illustrative embodiments of the dual reporter assay constructs is depicted. These illustrative embodiments use the renilla and firefly luciferases as first and second reporters, respectively. The sequences referred to herein as SEQ ID NO:1 and SEQ ID NO:2, which comprise antizyme 1 and 2 polyamine-regulated frameshifting sequences, respectively, were cloned into the SalI and BamHI sites of the p2Luc vector (U.S. Pat. No. 6,143,502) to produce plasmids p2Lucaz1 and p2Lucaz2. The shift site (TCCT), corresponding to UCCU in the corresponding mRNA, is present at nucleotides 55-58 of each of these sequences. Constructs were also prepared with deletions of the upstream stimulatory sequences of the antizyme 1 polyamine-regulated frameshifting sequence (SEQ ID NO:3) and the antizyme 2 polyamine-regulated frameshifting sequence (SEQ ID NO:4), resulting in plasmids p2Lucaz1usdel and p2Lucaz2usdel. Other constructs were prepared with deletions of the downstream pseudoknot stimulatory sequences of the antizyme 1 polyamine-regulated frameshifting sequence (SEQ ID NO:5) and the antizyme 2 polyamine-regulated frameshifting sequence (SEQ ID NO:6), resulting in plasmids p2Lucaz1pkdel and p2Lucaz2pkdel. Zero frame (“0 frame”) controls for each construct were identical except that the first T of the stop codon following the shift site was deleted. […]
# Cultured mammalian cells are transfected with the dual construct according to method well known in the art. Parallel cell lines are transfected with the +1 reading frame and 0 reading frame construct according to methods well known in the art. […] Cells are then lysed and the luciferase activity measured by light emission after injection of luminescence substrate, as is well known in the art. […] This provides a quantitative assay for measuring the polyamine-induced recoding. […]
# HEK293 cells = experiment: Intracellular polyamine levels by HPLC analysis of whole cell lysates; assay type: cell-based, human
# Protocol: Polyamine levels were also measured for comparison. Intracellular polyamine levels were determined by HPLC analysis of whole cell lysates. Cells (3×10^5) were grown in 6-well plates for 48 hours at 37° C. in an atmosphere of 5% CO2, either in the presence or absence of DFMO. Cells were then mock transfected as described above. […] Cells were allowed to grow for 12 hours, and 5×10^6 cells were harvested and washed three times with phosphate buffered saline.
# [3] = tested on: antizyme 1 and 2 frameshifting sequences with upstream stimulatory sequences deleted; experiment: Dual luciferase frameshifting assay, upstream deletion constructs p2Lucaz1usdel and p2Lucaz2usdel; assay type: cell-based, human; conditions: 1 mM spermidine added to DFMO (2.5 mM) treated HEK293 cells
# Description: (§1) Referring now to FIG. 2, the construction of illustrative embodiments of the dual reporter assay constructs is depicted. These illustrative embodiments use the renilla and firefly luciferases as first and second reporters, respectively. The sequences referred to herein as SEQ ID NO:1 and SEQ ID NO:2, which comprise antizyme 1 and 2 polyamine-regulated frameshifting sequences, respectively, were cloned into the SalI and BamHI sites of the p2Luc vector (U.S. Pat. No. 6,143,502) to produce plasmids p2Lucaz1 and p2Lucaz2. The shift site (TCCT), corresponding to UCCU in the corresponding mRNA, is present at nucleotides 55-58 of each of these sequences. […]
# (§2) To determine the effectiveness of the role of sequences flanking the frameshift site in inducing frameshifting levels, dual luciferase constructs were made in which antizyme sequences preceding and following the antizyme 1 and 2 frameshift sites were deleted. […] As described above, these constructs were then transiently transfected into HEK293 cells grown in standard growth nedia or media with 2.5 mM DFMO, and frameshift levels were measured following the addition of exogenously added spermidine (1 mM).
# [4] = tested on: antizyme 1 and 2 frameshifting sequences with downstream pseudoknot deleted; experiment: Dual luciferase frameshifting assay, downstream pseudoknot deletion constructs p2Lucaz1pkdel and p2Lucaz2pkdel; assay type: cell-based, human; conditions: 1 mM spermidine added to DFMO (2.5 mM) treated HEK293 cells
# Description: as §1, §2
# [5] = tested on: antizyme 3 frameshifting sequence; experiment: Dual luciferase reporter assay with p2Luc containing the antizyme 3 frameshifting sequence; assay type: cell-based; conditions: cultured mammalian cells, controls 2.5 mM DFMO
smiles,measurement,setting,value
"NCCCCN [Putrescine, putrescine]",Maximal frameshifting stimulation,[1],approximately 40%
same,Fold increase of antizyme 1 frameshifting upon polyamine addition to DFMO pre-treated cells,[1],~10 fold
same,Fold Increase (antizyme vs control),endogenous antizyme; 2 mM exogenous polyamine,1.5
same,Antizyme,endogenous antizyme; 2 mM exogenous polyamine,3.0 ± 0.7 units/mg
"NCCCCNCCCN [Spermidine, spermidine]",Maximal frameshifting stimulation,[1],approximately 40%
same,Fold increase of antizyme 1 frameshifting upon polyamine addition to DFMO pre-treated cells,[1],~10 fold
same,Antizyme 2 frameshifting response compared with antizyme 1,"[2]; HEK293, with or without DFMO, FIG. 4",showed a very similar response to polyamine depletion and addition
same,Fold Increase (antizyme vs control),endogenous antizyme; 1 mM exogenous polyamine,1.1
same,Antizyme,endogenous antizyme; 1 mM exogenous polyamine,23 ± 0.2 units/mg
same,Fold Increase (antizyme vs control),endogenous antizyme; 2 mM exogenous polyamine,1.6
same,Antizyme,endogenous antizyme; 2 mM exogenous polyamine,3.4 units/mg
same,Increase of intracellular spermidine levels over control cells,HEK293 cells; 1 mM spermidine added to DFMO treated HEK293 cells,1.5 fold
same,Effect on intracellular putrescine and spermine levels,HEK293 cells; 1 mM spermidine added to DFMO treated or untreated HEK293 cells,restored putrescine and spermine levels to nearly that of control cells
same,Increase of intracellular spermidine levels over control cells,HEK293 cells; 1 mM spermidine added to untreated (no DFMO) HEK293 cells,1.7 fold
same,"Stimulation of frameshifting, upstream deletion constructs",[3],5-6 fold
same,"Stimulation of frameshifting, downstream (pseudoknot) deletion constructs",[4],approximately 2 fold
NCCCCCN [cadaverine],"Effect on amount of frameshifting, p2Lucaz1","[1]; 0-32 mM cadaverine, FIG. 7B",effective for significantly increasing the amount of frameshifting observed
same,"Effect on amount of frameshifting, p2Lucaz2","[2]; 0-32 mM cadaverine, FIG. 7B",effective for significantly increasing the amount of frameshifting observed
same,"Effect on amount of frameshifting, antizyme 3 frameshifting sequence","[5]; 0-32 mM cadaverine, FIG. 7B",no increase in frameshifting was observed
"NCCCNCCCCNCCCN [Spermine, spermine]",Maximal frameshifting stimulation,[1],approximately 40%
same,Fold increase of antizyme 1 frameshifting upon polyamine addition to DFMO pre-treated cells,[1],~10 fold
same,Fold Increase (antizyme vs control),endogenous antizyme; 0.4 mM exogenous polyamine,1.2
same,Antizyme,endogenous antizyme; 0.4 mM exogenous polyamine,2.6 ± 0.5 units/mg
same,Fold Increase (antizyme vs control),endogenous antizyme; 0.8 mM exogenous polyamine,1.4
same,Antizyme,endogenous antizyme; 0.8 mM exogenous polyamine,3.0 ± 0.6 units/mg
N=C(N)NCCCCN [agmatine],"Effect on amount of frameshifting, p2Lucaz1","[1]; 0-16 mM agmatine, FIG. 7A",significantly increased the amount of frameshifting observed
same,"Effect on amount of frameshifting, p2Lucaz2","[2]; 0-16 mM agmatine, FIG. 7A",significantly increased the amount of frameshifting observed
same,"Effect on amount of frameshifting, antizyme 3 frameshifting sequence","[5]; 0-16 mM agmatine, FIG. 7A",no increase in frameshifting was observed
